Test results published in US11969428B2, “Methods and pharmaceutical compositions for treating lymphoid malignancy” (priority 2011, dated 2024).

Tests used:
CCRF-CEM cells = assay: Immunoblots of signaling downstream of PI3K; type: cell-based, human
Description: Cell lysates (from cell lines or thymocytes) were prepared on ice in M-PER Mammalian Protein Extraction reagent (Pierce) containing a cocktail of protease and phosphatase inhibitors (Swat et al., 2006). Equal amounts of total protein from lysates were subjected to SDS-PAGE, transferred to PVDF membrane (Immobilon-P, Millipore), and membranes probed by overnight incubation with appropriate primary antibodies. Bound antibodies were visualized with HRP-conjugated secondary antibodies and ECL chemistry (SuperPico West, Pierce).
The PI3K/Akt signaling pathway can play a major role in cell cycle progression and growth of tumors by regulating the activation state of the downstream targets such as glycogen synthase kinase-3β (GSK3β) and mTOR (Schmelzle and Hall, 2000; Cohen and Frame, 2001). PI3K/Akt mediated phosphorylation suppresses the function of the former and promotes the activity of the latter. Tumor cell survival, on the other hand, is largely mediated by the ability of this pathway to inactivate proapoptotic effectors such as the BH3-only pro-apoptotic protein BAD and to repress the expression of BIM, both of which participate in the mitochondria-dependent cell death pathway (Strasser et al., 2000; Duronio, 2008). Therefore, the ability of CAL-130 treatment to interfere with such events was examined. […] Downstream targets of this protein kinase were also affected as evidenced by the reduction in phosphorylation of GSK3β and mTOR. […] The latter would also explain in part the synergy between CAL-130 and dexamethasone, as BIM expression is required for glucocorticoid-induced apoptosis (Erlacher et al., 2005; Wang et al., 2003).

PRKCQ = target: T1, PRKCQ (Homo sapiens, UniProt Q04759); assay: Ambit KinomeScan screening; type: binding; conditions: CAL-130 10 μM
T1 construct: purchased Ambit (KinomeScan screening service)
Method in brief: (§1)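 Tagged kinases are exposed to an immobilized bait ligand with CAL-130 (10 μM) present. Kinase binding to the bait is then quantified relative to control. Results are given as % of control, where over 35% is scored as no hit.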

ABL1(Q252H) = target: T2, ABL1(Q252H) (Homo sapiens, UniProt P00519, Q252H); assay: Ambit KinomeScan screening; type: binding; conditions: CAL-130 10 μM
T2 construct: unspecified tag ("tagged kinases"); purchased Ambit (KinomeScan screening)
Method in brief: as §1

RIOK3 = target: T3, RIOK3 (Homo sapiens, UniProt O14730); assay: Ambit KinomeScan screening; type: binding; conditions: CAL-130 10 μM
T3 construct: unspecified tag (tagged kinase); purchased Ambit (KinomeScan screening)
Method in brief: as §1

YANK3 = target: T4, YANK3 (Homo sapiens, UniProt Q86UX6); assay: Ambit KinomeScan screening; type: binding; conditions: CAL-130 10 μM
T4 construct: purchased Ambit (KinomeScan screening service)
Method in brief: as §1

LCK = target: T5, LCK (Homo sapiens, UniProt P06239); assay: Ambit KinomeScan screening; type: binding; conditions: CAL-130 10 μM
T5 construct: unspecified tag ('tagged kinases'); purchased Ambit (KinomeScan screening service)
Method in brief: as §1

FES = target: T6, FES (Homo sapiens, UniProt P07332); assay: Ambit KinomeScan screening; type: binding; conditions: CAL-130 10 μM
T6 construct: unspecified tag ("tagged kinases"); purchased Ambit (KinomeScan screening service)
T6 sequence (P07332 whole entry): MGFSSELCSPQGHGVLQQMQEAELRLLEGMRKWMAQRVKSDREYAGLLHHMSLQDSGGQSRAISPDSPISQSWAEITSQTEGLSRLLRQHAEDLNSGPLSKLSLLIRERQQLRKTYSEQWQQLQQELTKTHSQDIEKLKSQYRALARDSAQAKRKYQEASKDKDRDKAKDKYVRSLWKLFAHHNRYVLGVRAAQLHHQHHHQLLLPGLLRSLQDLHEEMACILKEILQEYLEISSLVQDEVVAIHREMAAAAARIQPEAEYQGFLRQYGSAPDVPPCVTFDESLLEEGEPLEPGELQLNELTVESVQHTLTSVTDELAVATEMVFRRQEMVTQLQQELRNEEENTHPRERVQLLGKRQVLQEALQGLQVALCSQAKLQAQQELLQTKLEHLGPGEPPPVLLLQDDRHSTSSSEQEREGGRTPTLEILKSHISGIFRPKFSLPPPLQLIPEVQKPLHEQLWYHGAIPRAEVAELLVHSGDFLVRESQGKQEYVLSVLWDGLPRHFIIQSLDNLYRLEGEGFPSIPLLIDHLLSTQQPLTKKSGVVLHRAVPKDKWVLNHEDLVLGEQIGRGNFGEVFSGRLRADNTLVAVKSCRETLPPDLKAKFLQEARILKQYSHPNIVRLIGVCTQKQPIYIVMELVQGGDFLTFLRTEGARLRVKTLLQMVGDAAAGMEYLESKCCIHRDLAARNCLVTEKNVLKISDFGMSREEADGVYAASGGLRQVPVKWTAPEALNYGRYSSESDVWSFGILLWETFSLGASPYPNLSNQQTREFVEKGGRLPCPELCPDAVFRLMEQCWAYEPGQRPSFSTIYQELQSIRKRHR
Method in brief: as §1

IKK-β = target: T7, IKK-β (Homo sapiens, UniProt O14920); assay: Ambit KinomeScan screening; type: binding; conditions: CAL-130 10 μM
T7 construct: Ambit (KinomeScan screening)
T7 sequence (O14920 whole entry): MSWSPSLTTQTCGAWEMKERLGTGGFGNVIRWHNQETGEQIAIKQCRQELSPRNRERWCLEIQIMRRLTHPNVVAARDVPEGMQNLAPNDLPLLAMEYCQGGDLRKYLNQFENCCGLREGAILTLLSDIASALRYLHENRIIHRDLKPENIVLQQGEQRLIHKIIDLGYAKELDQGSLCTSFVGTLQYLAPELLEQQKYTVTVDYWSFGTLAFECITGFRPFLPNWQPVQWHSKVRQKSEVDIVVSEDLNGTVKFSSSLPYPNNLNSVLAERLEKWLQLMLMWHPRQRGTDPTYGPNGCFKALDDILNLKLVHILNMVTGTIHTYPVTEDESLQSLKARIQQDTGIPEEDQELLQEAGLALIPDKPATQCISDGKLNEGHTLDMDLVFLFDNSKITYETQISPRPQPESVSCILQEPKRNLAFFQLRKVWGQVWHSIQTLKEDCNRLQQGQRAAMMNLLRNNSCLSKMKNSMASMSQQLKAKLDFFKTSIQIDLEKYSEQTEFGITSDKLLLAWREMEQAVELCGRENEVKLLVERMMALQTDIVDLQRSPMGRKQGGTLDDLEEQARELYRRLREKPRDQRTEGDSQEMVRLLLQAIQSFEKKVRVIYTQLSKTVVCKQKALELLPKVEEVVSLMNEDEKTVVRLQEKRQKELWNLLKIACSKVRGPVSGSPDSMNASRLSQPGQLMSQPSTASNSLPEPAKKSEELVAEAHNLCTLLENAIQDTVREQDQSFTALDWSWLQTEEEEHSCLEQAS
Method in brief: as §1

ICK = target: T8, ICK (Homo sapiens, UniProt Q9UPZ9); assay: Ambit KinomeScan screening; type: binding; conditions: CAL-130 10 μM
T8 construct: Ambit (KinomeScan screening)
Method in brief: as §1

EPHB1 = target: T9, EPHB1 (Homo sapiens, UniProt P54762); assay: Ambit KinomeScan screening; type: binding; conditions: CAL-130 10 μM
T9 construct: purchased Ambit (KinomeScan screening service)
Method in brief: as §1

JAK3(JH1domain) = target: T10, JAK3(JH1domain) (Homo sapiens, UniProt P52333); assay: Ambit KinomeScan screening; type: binding; conditions: CAL-130 10 μM
T10 construct: JAK3(JH1domain); purchased Ambit (KinomeScan screening)
T10 sequence (P52333 822-1111 limits assumed): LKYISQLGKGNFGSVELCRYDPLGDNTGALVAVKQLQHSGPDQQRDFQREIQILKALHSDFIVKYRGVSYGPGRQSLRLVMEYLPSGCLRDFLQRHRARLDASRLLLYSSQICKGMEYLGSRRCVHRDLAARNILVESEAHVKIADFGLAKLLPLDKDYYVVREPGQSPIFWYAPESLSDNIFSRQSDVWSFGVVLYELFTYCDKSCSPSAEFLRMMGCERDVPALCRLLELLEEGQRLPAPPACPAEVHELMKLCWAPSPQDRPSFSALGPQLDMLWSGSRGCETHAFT
Method in brief: as §1

PIM1 = target: T11, PIM1 (Homo sapiens, UniProt P11309); assay: Ambit KinomeScan screening; type: binding; conditions: CAL-130 10 μM
T11 construct: unspecified tag; purchased Ambit (KinomeScan screening panel)
Method in brief: as §1

CSNK1G1 = target: T12, CSNK1G1 (Homo sapiens, UniProt Q9HCP0); assay: Ambit KinomeScan screening; type: binding; conditions: CAL-130 10 μM
T12 construct: purchased Ambit (KinomeScan screening service)
T12 sequence (Q9HCP0 whole entry): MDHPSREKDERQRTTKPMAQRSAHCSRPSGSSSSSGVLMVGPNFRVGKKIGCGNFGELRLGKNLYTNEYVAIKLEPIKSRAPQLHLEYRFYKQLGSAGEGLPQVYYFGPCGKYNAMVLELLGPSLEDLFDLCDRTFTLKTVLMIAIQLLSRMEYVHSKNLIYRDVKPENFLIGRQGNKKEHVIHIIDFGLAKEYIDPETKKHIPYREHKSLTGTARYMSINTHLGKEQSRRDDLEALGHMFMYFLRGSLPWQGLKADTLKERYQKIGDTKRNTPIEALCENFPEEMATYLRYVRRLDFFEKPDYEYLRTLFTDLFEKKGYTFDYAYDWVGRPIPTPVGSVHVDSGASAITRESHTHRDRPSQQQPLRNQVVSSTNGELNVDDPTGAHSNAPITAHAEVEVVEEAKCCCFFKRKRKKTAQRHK
Method in brief: as §1

CLK2 = target: T13, CLK2 (Homo sapiens, UniProt P49760); assay: Ambit KinomeScan screening; type: binding; conditions: CAL-130 10 μM
T13 construct: purchased Ambit (KinomeScan screening service)
Method in brief: as §1

CAMK2A = target: T14, CAMK2A (Homo sapiens, UniProt Q9UQM7); assay: Ambit KinomeScan screening; type: binding; conditions: CAL-130 10 μM
T14 construct: unspecified tag ("tagged kinases"); purchased Ambit (KinomeScan screening)
Method in brief: as §1

RPS6KA3 = target: T15, RPS6KA3 (Homo sapiens, UniProt P51812); assay: Ambit KinomeScan screening; type: binding; conditions: CAL-130 10 μM
T15 construct: unspecified tag (tagged kinase); purchased Ambit (KinomeScan screening)
T15 sequence (P51812 whole entry): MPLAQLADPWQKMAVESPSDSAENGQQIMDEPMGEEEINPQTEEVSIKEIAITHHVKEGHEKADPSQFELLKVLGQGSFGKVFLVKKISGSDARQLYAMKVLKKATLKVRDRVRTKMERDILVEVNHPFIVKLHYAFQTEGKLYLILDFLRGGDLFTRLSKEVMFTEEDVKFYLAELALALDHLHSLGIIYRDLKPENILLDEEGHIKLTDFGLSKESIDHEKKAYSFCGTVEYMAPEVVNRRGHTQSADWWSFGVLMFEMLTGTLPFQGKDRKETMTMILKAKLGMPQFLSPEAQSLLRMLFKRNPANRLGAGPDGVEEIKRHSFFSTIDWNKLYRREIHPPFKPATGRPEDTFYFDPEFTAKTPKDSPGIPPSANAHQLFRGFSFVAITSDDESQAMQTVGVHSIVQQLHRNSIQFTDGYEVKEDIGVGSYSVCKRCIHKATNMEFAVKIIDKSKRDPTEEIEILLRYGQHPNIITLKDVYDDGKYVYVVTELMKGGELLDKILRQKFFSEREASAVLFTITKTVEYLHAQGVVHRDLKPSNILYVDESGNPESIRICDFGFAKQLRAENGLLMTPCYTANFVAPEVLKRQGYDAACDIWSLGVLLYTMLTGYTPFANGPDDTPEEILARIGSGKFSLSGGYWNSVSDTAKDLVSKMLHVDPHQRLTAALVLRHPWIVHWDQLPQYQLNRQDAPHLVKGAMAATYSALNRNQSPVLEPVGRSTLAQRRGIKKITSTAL
Method in brief: as §1

BRK = target: T16, BRK (Homo sapiens, UniProt Q13882); assay: Ambit KinomeScan screening; type: binding; conditions: CAL-130 10 μM
T16 construct: unspecified tag ("tagged kinases"); purchased Ambit (KinomeScan screening)
T16 sequence (Q13882 whole entry): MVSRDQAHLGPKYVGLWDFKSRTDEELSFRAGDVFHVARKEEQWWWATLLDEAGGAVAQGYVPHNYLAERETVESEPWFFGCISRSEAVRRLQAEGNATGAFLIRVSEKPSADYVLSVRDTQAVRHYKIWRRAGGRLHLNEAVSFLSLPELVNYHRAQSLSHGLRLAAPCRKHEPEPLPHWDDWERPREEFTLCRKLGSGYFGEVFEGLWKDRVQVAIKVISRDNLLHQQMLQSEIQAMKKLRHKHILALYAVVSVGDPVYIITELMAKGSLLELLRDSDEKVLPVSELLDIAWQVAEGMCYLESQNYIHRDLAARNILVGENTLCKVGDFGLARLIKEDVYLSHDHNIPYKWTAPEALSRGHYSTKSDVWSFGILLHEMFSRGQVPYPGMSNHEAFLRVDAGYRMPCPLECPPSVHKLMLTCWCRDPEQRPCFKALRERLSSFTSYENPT
Method in brief: as §1

PLK4 = target: T17, PLK4 (Homo sapiens, UniProt O00444); assay: Ambit KinomeScan screening; type: binding; conditions: CAL-130 10 μM
T17 construct: purchased Ambit (KinomeScan screening service)
T17 sequence (O00444 whole entry): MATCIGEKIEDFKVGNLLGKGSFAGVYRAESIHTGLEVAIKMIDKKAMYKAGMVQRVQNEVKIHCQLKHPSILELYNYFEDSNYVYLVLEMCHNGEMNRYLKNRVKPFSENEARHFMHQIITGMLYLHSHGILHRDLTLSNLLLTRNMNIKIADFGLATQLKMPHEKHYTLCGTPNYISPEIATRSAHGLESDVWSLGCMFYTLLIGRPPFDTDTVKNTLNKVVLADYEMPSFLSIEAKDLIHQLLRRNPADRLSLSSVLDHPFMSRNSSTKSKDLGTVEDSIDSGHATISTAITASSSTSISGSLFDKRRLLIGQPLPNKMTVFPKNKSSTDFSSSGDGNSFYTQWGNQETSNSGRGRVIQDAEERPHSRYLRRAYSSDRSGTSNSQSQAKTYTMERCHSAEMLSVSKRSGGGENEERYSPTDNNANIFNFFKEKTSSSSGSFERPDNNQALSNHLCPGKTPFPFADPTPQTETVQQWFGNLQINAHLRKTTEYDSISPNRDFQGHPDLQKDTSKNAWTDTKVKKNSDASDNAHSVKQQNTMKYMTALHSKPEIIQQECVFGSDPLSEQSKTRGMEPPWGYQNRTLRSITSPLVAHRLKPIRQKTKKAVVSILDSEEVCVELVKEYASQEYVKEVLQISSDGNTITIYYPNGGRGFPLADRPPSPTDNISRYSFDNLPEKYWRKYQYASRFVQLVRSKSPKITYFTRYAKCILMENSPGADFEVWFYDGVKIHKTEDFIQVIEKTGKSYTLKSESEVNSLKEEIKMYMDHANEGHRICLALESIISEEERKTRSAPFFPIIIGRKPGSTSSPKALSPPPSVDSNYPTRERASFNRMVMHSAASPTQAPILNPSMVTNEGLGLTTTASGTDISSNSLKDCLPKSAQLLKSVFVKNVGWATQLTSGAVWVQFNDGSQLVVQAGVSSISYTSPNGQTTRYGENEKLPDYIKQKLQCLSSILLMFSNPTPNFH
Method in brief: as §1

PDGFRB = target: T18, PDGFRB (Homo sapiens, UniProt P09619); assay: Ambit KinomeScan screening; type: binding; conditions: CAL-130 10 μM
T18 construct: unspecified tag ('tagged kinases'); purchased Ambit (KinomeScan screening)
Method in brief: as §1

AMPK-α1 = target: T19, AMPK-α1 (Homo sapiens, UniProt Q13131); assay: Ambit KinomeScan screening; type: binding; conditions: CAL-130 10 μM
T19 construct: purchased Ambit (KinomeScan screening)
T19 sequence (Q13131 whole entry): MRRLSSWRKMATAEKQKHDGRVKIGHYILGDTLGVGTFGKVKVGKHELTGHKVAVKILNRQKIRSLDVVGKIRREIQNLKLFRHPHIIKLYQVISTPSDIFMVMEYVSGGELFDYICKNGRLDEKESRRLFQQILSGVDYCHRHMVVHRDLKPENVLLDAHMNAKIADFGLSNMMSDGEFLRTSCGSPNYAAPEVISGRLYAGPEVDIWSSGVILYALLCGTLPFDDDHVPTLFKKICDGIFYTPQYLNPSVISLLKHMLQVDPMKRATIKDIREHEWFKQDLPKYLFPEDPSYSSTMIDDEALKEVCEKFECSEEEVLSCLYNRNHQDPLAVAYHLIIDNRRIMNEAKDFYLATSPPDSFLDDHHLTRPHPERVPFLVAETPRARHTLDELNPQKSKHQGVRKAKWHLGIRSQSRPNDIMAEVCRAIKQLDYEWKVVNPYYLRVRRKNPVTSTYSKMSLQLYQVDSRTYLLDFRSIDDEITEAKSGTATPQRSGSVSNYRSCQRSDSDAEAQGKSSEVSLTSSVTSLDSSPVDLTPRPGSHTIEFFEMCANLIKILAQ
Method in brief: as §1

ABL1(H396P) = target: T20, ABL1(H396P) (Homo sapiens, UniProt P00519, H396P); assay: Ambit KinomeScan screening; type: binding; conditions: CAL-130 10 μM
T20 construct: unspecified tag ("tagged kinases"); purchased Ambit (KinomeScan screening)
Method in brief: as §1

MAPKAPK2 = target: T21, MAPKAPK2 (Homo sapiens, UniProt P49137); assay: Ambit KinomeScan screening; type: binding; conditions: CAL-130 10 μM
T21 construct: Ambit (KinomeScan screening)
Method in brief: as §1

TEC = target: T22, TEC (Homo sapiens, UniProt P42680); assay: Ambit KinomeScan screening; type: binding; conditions: CAL-130 10 μM
T22 construct: unspecified tag (tagged kinase); purchased Ambit (KinomeScan screening)
Method in brief: as §1

RET(V804L) = target: T23, RET(V804L) (Homo sapiens, UniProt P07949, V804L); assay: Ambit KinomeScan screening; type: binding; conditions: CAL-130 10 μM
T23 construct: tag (kind not specified); purchased Ambit (KinomeScan screening service)
Method in brief: as §1

HUNK = target: T24, HUNK (Homo sapiens, UniProt P57058); assay: Ambit KinomeScan screening; type: binding; conditions: CAL-130 10 μM
T24 construct: Ambit (KinomeScan screening)
Method in brief: as §1

## Cc1ccccc1-n1c(C(C)Nc2nc(N)nc3nc[nH]c23)nc2cccc(C)c2c1=O (centres unmarked) [CAL-130]
CCRF-CEM cells
  expression of BIM (including L and S isoforms): enhanced expression
  phosphorylation of BAD: reduction
  phosphorylation of GSK3β: reduction
  phosphorylation of mTOR: reduction
CCRF-CEM cells; 2.5 μM, 6 hours
  Akt (Ser473) phosphorylation: complete abrogation
PRKCQ
  Percent of Control Binding: 100%
ABL1(Q252H)
  Percent of Control Binding: 100%
RIOK3
  Percent of Control Binding: 100%
YANK3
  Percent of Control Binding: 100%
LCK
  Percent of Control Binding: 100%
FES
  Percent of Control Binding: 100%
IKK-β
  Percent of Control Binding: 100%
ICK
  Percent of Control Binding: 100%
EPHB1
  Percent of Control Binding: 100%
JAK3(JH1domain)
  Percent of Control Binding: 100%
PIM1
  Percent of Control Binding: 100%
CSNK1G1
  Percent of Control Binding: 100%
CLK2
  Percent of Control Binding: 100%
CAMK2A
  Percent of Control Binding: 100%
RPS6KA3
  Percent of Control Binding: 100%
BRK
  Percent of Control Binding: 100%
PLK4
  Percent of Control Binding: 100%
PDGFRB
  Percent of Control Binding: 100%
AMPK-α1
  Percent of Control Binding: 100%
ABL1(H396P)
  Percent of Control Binding: 100%
MAPKAPK2
  Percent of Control Binding: 100%
TEC
  Percent of Control Binding: 100%
RET(V804L)
  Percent of Control Binding: 100%
HUNK
  Percent of Control Binding: 100%
